According to patent US20070099915A1, “INHIBITORS OF THE HIV INTEGRASE ENZYME” (PFIZER INC., priority 2005, published 2007):
pEC50, pIC50: −log10 of the molar value.

What was measured:
[1] = target: T1, Full-length wild type HIV-1 integrase (SF1) (Human immunodeficiency virus type 1 group M subtype B, UniProt P04585); assay: Integrase strand-transfer scintillation proximity assay; assay type: biochemical; details: strand-transfer SPA, 246 nM integrase, 50 nM host DNA, 37° C., 50 min; read-out: IC50
T1 construct: made in house; host or cells: E. coli BL21 (DE3)

[2] = tested on: HIV-1 RF virus in CEM-SS cells; assay: HIV-1 cell protection assay (XTT dye reduction); assay type: cell-based; details: Human immunodeficiency virus 1, 144 h; RF strain of HIV-1, CEM-SS cells, XTT read-out after six days; read-out: EC50
How it was run: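 Infected CEM-SS cultures incubated six days, then XTT with phenazine methosulfate added for 4 h; viability read as formazan absorbance at 450 nm. Formazan expressed as percent of uninfected, compound-free cells; CC50 from uninfected treated cells, therapeutic index as CC50/EC50.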

SMILES | pIC50 [1] | pEC50 [2]
CN(Cc1cn(Cc2ccc(F)cc2)c2cnc3c(c12)CCN(O)C3=O)CC(F)(F)F [Example 73, 3-(4-fluorobenzyl)-7-hydroxy-1-{[methyl(2,2,2-trifluoroethyl)amino]methyl}-3,7,8,9-tetrahydro-6H-pyrrolo[2,3-c]-1,7-naphthyridin-6-one] | 8.15 | 9.40
CCCOCCOCc1cn(Cc2ccc(F)cc2)c2cnc3c(c12)CCN(O)C3=O [Example 75, 3-(4-fluorobenzyl)-7-hydroxy-1-[(2-propoxyethoxy)methyl]-3,7,8,9-tetrahydro-6H-pyrrolo[2,3-c]-1,7-naphthyridin-6-one] | 7.77 | 9.15
Cc1cccc(COCc2cn(Cc3ccc(F)cc3)c3cnc4c(c23)CCN(O)C4=O)n1 [Example 78, 3-(4-fluorobenzyl)-7-hydroxy-1-{[(6-methylpyridin-2-yl)methoxy]methyl}-3,7,8,9-tetrahydro-6H-pyrrolo[2,3-c]-1,7-naphthyridin-6-one] | 7.96 | 9.22
O=C1c2ncc3c(c(COCC4CCC4)cn3Cc3ccc(F)cc3)c2CCN1O [Example 79, 1-[(cyclobutylmethoxy)methyl]-3-(4-fluorobenzyl)-7-hydroxy-3,7,8,9-tetrahydro-6H-pyrrolo[2,3-c]-1,7-naphthyridin-6-one] | 8.00 | 9.00
CC(C)N(CCOCc1cn(Cc2ccc(F)cc2)c2cnc3c(c12)CCN(O)C3=O)C(C)C [Example 80, 1-{[2-(diisopropylamino)ethoxy]methyl}-3-(4-fluorobenzyl)-7-hydroxy-3,7,8,9-tetrahydro-6H-pyrrolo[2,3-c]-1,7-naphthyridin-6-one] | 7.64 | 7.92
O=C1c2ncc3c(c(CNCC(F)F)cn3Cc3ccc(F)cc3)c2CCN1O [Example 81, 1-{[(2,2-difluoroethyl)amino]methyl}-3-(4-fluorobenzyl)-7-hydroxy-3,7,8,9-tetrahydro-6H-pyrrolo[2,3-c]-1,7-naphthyridin-6-one] | 8.10 | 9.49
CCCCOCCOCc1cn(Cc2ccc(F)cc2)c2cnc3c(=O)n(O)ccc3c12 [Example 82, 1-[(2-butoxyethoxy)methyl]-3-(4-fluorobenzyl)-7-hydroxy-3,7-dihydro-6H-pyrrolo[2,3-c]-1,7-naphthyridin-6-one] | 8.00 | 9.43
N#Cc1ccccc1Cn1ccc2c3c(ncc21)C(=O)N(O)CC3 [Example 84, 2-[(7-hydroxy-6-oxo-6,7,8,9-tetrahydro-3H-pyrrolo[2,3-c]-1,7-naphthyridin-3-yl)methyl]benzonitrile] | 6.90 | 7.49
N#Cc1cccc(Cn2ccc3c4c(ncc32)C(=O)N(O)CC4)c1 [Example 85, 3-[(7-hydroxy-6-oxo-6,7,8,9-tetrahydro-3H-pyrrolo[2,3c]1,7-naphthyridin-3-yl)methyl]benzonitrile] | 6.25 | 6.34
N#Cc1ccc(Cn2ccc3c4c(ncc32)C(=O)N(O)CC4)cc1 [Example 86, 4-[(7-hydroxy-6-oxo-6,7,8,9-tetrahydro-3H-pyrrolo[2,3-c]-1,7-naphthyridin-3-yl)methyl]benzonitrile] | 6.97 | 7.57
O=C1c2ncc3c(ccn3Cc3ccccn3)c2CCN1O [Example 87, 7-hydroxy-3-(pyridin-2-ylmethyl)-3,7,8,9-tetrahydro-6H-pyrrolo[2,3-c]-1,7-naphthyridin-6-one] | 7.05 | 7.46
N#Cc1cc(Cn2ccc3c4c(ncc32)C(=O)N(O)CC4)ccc1F [Example 88, 2-fluoro-5-[(7-hydroxy-6-oxo-6,7,8,9-tetrahydro-3H-pyrrolo[2,3-c]-1,7-naphthyridin-3-yl)methyl]benzonitrile] | 8.05 | 9.35
O=c1c2ncc3c(c(COCC4CCC4)cn3Cc3ccc(F)cc3)c2ccn1O [Example 90, 1-[(cyclobutylmethoxy)methyl]-3-(4-fluorobenzyl)-7-hydroxy-3,7-dihydro-6H-pyrrolo[23-c]-17-naphthyridin-6-one] | 7.23 | 7.85
